In ChEMBL document CHEMBL1201862, “PubChem BioAssay data set” (2004):
Active and inactive are the calls of the source.

Key:
Nonstructural protein 1 = Nonstructural protein 1 (Influenza A virus, UniProt Q194T2); format: functional, Influenza A virus (A/California/07/2009(H1N1))
[1] = biological target: T1, Intestinal-type alkaline phosphatase (Homo sapiens, UniProt P09923); experiment: inhibition of human intestinal alkaline phosphatase – biochemical, luminescent, uHTS hits, set 2, dose response (AID 488793); format: functional
T1 sequence (P09923 whole entry): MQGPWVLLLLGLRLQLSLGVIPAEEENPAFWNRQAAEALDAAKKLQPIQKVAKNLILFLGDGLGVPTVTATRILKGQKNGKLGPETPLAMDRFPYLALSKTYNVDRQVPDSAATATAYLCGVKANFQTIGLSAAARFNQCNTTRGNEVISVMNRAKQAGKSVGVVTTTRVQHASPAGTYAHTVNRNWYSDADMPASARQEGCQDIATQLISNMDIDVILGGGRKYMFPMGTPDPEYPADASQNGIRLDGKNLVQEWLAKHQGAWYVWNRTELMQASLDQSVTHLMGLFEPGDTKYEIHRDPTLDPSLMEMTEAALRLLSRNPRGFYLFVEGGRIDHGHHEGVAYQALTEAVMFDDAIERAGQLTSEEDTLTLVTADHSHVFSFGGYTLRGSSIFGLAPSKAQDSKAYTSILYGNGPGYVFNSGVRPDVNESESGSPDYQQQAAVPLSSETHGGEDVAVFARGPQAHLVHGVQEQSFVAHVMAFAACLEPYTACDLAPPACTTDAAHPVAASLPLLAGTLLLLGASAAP

[2] = biological target: T2, Alkaline phosphatase, tissue-nonspecific isozyme (Homo sapiens, UniProt P05186); experiment: inhibition of tissue-nonspecific alkaline phosphatase – biochemical, dose response (AID 488882); format: functional
T2 sequence (P05186 whole entry): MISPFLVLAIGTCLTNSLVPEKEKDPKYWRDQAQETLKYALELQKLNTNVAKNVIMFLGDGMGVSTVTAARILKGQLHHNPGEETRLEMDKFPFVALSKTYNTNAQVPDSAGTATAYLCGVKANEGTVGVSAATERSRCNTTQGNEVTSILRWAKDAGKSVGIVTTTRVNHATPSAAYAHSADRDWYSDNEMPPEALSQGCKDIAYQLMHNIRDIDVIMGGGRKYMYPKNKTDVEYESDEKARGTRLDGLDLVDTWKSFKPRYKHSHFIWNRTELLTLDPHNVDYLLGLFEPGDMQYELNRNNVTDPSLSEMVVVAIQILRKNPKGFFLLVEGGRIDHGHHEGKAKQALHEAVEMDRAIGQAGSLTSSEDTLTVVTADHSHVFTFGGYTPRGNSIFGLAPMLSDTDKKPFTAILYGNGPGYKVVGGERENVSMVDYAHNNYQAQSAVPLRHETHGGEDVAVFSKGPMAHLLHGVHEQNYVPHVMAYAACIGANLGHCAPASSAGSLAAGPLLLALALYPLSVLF

Protein skinhead-1 = biological target: T3, Protein skinhead-1 (Caenorhabditis elegans, UniProt P34707); format: functional
T3 sequence (P34707 whole entry): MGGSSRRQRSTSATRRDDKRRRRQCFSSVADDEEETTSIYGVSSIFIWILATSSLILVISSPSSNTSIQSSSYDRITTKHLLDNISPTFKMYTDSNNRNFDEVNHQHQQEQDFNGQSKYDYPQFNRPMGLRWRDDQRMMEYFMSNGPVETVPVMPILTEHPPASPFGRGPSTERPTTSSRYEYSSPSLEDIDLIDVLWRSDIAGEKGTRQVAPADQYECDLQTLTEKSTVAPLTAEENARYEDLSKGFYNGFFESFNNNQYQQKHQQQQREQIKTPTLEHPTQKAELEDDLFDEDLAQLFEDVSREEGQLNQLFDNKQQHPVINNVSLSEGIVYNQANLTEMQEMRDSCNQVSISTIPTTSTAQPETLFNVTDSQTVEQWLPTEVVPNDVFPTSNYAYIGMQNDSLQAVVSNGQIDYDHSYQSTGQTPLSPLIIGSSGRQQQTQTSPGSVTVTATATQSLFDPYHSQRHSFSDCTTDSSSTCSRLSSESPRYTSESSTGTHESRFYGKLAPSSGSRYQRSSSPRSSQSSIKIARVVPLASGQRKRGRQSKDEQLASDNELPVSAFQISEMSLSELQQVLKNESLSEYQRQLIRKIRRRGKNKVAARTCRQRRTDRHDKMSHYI

Protein RecA = biological target: T4, Protein RecA (Mycobacterium tuberculosis, UniProt P9WHJ3); experiment: Fluorescence Cell-Free Homogeneous Dose Retest to Identify Inhibitors of RecA-Intein Splicing Activity. [Related pubchem assays (depositor defined):AID2097, AID2223, AID489010, AID492950]; format: functional
T4 sequence (P9WHJ3 whole entry): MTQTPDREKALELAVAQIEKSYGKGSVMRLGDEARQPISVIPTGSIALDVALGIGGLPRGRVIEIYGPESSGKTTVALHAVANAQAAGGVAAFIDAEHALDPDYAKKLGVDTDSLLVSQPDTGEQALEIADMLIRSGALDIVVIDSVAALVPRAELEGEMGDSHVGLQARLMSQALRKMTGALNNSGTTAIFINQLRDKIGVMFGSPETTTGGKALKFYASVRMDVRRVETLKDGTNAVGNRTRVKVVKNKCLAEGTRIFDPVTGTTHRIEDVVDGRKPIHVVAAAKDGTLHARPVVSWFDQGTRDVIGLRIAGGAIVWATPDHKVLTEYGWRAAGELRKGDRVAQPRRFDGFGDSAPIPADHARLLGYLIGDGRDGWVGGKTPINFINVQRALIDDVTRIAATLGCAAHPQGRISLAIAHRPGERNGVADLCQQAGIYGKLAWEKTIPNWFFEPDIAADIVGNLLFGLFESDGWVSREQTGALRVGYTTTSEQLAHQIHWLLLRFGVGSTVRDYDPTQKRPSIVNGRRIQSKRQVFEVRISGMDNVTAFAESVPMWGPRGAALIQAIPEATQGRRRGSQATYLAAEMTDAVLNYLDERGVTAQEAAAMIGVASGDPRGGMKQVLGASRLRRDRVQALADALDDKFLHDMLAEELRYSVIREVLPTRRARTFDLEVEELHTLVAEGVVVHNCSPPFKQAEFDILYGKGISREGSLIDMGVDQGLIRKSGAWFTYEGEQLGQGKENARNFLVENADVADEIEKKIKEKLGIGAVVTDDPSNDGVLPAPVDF

[3] = biological target: Intestinal-type alkaline phosphatase (Mus musculus, UniProt P24822); experiment: PubChem AID 488874; format: functional
[4] = biological target: T1, Intestinal-type alkaline phosphatase; experiment: Dose Response confirmation of uHTS hits from a small molecule inhibitors of human intestinal alkaline phosphatase via a luminescent assay. [Related pubchem assays (depositor defined):AID2544, AID2574]; format: functional
[5] = biological target: T5, Zinc finger protein mex-5 (Caenorhabditis elegans, UniProt Q9XUB2); experiment: potency of MEX-5 RNA-binding blockers – biochemical, C. elegans, fluorescence polarization, dose response (AID 1960)
T5 sequence (Q9XUB2 whole entry): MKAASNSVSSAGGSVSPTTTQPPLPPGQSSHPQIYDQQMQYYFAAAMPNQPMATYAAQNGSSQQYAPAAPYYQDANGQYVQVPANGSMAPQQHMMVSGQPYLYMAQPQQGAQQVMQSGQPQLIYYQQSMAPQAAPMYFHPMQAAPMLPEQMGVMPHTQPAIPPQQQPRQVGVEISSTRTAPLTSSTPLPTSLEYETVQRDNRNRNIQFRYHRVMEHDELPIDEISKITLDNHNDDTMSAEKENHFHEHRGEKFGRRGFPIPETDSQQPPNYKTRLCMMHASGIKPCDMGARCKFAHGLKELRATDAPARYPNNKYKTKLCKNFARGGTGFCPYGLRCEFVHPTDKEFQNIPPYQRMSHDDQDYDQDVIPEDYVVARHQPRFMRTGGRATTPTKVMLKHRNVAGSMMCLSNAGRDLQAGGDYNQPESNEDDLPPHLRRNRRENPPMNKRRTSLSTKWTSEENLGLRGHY

[6] = biological target: T6, RNA-binding protein pos-1 (Caenorhabditis elegans, UniProt G5EF15); experiment: disruptors of C. elegans POS-1 RNA interaction – biochemical, fluorescence polarization, dose response (AID 1964);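 also: purified POS-1 fused to maltose binding protein made in E. coli; potency of compounds blocking POS-1 binding to fluorescent RNA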
T6 sequence (G5EF15 whole entry): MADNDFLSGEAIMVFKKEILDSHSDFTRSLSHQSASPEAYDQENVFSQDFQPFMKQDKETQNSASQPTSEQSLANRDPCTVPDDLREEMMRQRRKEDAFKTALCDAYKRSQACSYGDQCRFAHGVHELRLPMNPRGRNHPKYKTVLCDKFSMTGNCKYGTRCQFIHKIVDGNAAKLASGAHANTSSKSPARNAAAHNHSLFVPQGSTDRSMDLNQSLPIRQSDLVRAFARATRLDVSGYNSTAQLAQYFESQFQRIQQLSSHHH

Keap1/Nrf2 = Keap1/Nrf2 (Homo sapiens, UniProt Q14145); experiment: disruptors of Keap1 binding to Nrf2 peptide – biochemical, fluorescence polarization, cherry-picked samples, dose response (AID 588683)
NIH3T3 = experiment: mammalian cell viability counter-check – Alamar Blue, fluconazole, dry powder, cytotoxicity control for antifungal drug resistance project, dose response (AID 488809); format: functional, cell-based; details: Mus musculus
Cytochrome P450 2D6 = Cytochrome P450 2D6 (Homo sapiens, UniProt P10635);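 also: CYP2D6 member of a cytochrome P450 panel assay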
Chain of Cytochrome P450 2D6 (P10635 whole entry): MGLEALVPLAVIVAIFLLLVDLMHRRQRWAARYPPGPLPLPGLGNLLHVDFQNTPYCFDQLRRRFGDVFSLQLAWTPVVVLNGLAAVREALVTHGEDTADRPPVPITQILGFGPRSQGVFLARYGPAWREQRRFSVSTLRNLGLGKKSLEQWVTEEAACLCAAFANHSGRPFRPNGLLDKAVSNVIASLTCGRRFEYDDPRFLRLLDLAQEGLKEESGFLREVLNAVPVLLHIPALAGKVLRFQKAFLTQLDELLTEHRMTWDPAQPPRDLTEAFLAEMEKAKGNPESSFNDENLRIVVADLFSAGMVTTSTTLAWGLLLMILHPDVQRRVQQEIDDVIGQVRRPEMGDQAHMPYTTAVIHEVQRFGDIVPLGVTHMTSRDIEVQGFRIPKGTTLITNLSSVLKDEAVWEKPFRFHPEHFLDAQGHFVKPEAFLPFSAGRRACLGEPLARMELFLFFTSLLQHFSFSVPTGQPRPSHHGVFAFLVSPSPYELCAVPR

Cytochrome P450 2C9 = Cytochrome P450 2C9 (Homo sapiens, UniProt P11712)
Chain of Cytochrome P450 2C9 (P11712 whole entry): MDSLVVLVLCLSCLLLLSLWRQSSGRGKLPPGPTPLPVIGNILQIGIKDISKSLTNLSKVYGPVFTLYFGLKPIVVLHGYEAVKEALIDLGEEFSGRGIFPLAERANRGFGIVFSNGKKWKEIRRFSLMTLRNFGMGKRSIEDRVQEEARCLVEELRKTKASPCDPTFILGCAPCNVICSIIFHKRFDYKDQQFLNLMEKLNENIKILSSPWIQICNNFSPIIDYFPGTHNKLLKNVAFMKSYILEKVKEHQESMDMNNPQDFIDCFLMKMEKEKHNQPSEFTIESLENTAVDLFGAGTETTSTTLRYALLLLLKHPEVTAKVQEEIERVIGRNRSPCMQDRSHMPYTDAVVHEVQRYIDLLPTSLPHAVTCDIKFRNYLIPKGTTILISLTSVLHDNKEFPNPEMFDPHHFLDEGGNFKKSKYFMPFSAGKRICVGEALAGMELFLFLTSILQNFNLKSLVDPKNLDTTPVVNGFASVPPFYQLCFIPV

[7] = restored growth of temperature-sensitive Burl-1 yeast – whole organism, S. cerevisiae, Burl-1 ts mutant, luminescence, counter-screen for SUMOylation pathway inhibitor project, dose response (AID 463199); format: functional
[8] = Fluorescence polarization-based biochemical high throughput dose response assay for activators of the Protein Kinase A-R2B (PKA-R2B) complex. [Related pubchem assays (depositor defined):AID504700, AID504704, AID504796, AID504797]
[9] = PKA-R1A complex activators, counter-screen titration – biochemical, Cy5-IP20 fluorescence polarization, 1536-well, triplicate, counter-screen for PKA-R2B activator project, dose response (AID 504896)
SUMO E1/E2 = SUMO E1/E2 (Homo sapiens, UniProt P63279+Q9UBE0+Q9UBT2); experiment: SAR analysis of SUMOylation using HTRF in an in-Vitro dose response assay. [Related pubchem assays (depositor defined):AID2006, AID2011, AID2018, AID2069, AID2658]; format: functional
[10] = biological target: T7, Voltage-gated N-type calcium channel alpha-1B subunit/Amyloid beta A4 precursor protein-binding family A member 1 (Homo sapiens, UniProt Q00975+Q02410); experiment: disruptors of Mint-PDZ/N-type channel peptide interaction – biochemical, HTRF, SAR follow-up (AID 2489); format: functional
T7 sequence (Q00975 whole entry): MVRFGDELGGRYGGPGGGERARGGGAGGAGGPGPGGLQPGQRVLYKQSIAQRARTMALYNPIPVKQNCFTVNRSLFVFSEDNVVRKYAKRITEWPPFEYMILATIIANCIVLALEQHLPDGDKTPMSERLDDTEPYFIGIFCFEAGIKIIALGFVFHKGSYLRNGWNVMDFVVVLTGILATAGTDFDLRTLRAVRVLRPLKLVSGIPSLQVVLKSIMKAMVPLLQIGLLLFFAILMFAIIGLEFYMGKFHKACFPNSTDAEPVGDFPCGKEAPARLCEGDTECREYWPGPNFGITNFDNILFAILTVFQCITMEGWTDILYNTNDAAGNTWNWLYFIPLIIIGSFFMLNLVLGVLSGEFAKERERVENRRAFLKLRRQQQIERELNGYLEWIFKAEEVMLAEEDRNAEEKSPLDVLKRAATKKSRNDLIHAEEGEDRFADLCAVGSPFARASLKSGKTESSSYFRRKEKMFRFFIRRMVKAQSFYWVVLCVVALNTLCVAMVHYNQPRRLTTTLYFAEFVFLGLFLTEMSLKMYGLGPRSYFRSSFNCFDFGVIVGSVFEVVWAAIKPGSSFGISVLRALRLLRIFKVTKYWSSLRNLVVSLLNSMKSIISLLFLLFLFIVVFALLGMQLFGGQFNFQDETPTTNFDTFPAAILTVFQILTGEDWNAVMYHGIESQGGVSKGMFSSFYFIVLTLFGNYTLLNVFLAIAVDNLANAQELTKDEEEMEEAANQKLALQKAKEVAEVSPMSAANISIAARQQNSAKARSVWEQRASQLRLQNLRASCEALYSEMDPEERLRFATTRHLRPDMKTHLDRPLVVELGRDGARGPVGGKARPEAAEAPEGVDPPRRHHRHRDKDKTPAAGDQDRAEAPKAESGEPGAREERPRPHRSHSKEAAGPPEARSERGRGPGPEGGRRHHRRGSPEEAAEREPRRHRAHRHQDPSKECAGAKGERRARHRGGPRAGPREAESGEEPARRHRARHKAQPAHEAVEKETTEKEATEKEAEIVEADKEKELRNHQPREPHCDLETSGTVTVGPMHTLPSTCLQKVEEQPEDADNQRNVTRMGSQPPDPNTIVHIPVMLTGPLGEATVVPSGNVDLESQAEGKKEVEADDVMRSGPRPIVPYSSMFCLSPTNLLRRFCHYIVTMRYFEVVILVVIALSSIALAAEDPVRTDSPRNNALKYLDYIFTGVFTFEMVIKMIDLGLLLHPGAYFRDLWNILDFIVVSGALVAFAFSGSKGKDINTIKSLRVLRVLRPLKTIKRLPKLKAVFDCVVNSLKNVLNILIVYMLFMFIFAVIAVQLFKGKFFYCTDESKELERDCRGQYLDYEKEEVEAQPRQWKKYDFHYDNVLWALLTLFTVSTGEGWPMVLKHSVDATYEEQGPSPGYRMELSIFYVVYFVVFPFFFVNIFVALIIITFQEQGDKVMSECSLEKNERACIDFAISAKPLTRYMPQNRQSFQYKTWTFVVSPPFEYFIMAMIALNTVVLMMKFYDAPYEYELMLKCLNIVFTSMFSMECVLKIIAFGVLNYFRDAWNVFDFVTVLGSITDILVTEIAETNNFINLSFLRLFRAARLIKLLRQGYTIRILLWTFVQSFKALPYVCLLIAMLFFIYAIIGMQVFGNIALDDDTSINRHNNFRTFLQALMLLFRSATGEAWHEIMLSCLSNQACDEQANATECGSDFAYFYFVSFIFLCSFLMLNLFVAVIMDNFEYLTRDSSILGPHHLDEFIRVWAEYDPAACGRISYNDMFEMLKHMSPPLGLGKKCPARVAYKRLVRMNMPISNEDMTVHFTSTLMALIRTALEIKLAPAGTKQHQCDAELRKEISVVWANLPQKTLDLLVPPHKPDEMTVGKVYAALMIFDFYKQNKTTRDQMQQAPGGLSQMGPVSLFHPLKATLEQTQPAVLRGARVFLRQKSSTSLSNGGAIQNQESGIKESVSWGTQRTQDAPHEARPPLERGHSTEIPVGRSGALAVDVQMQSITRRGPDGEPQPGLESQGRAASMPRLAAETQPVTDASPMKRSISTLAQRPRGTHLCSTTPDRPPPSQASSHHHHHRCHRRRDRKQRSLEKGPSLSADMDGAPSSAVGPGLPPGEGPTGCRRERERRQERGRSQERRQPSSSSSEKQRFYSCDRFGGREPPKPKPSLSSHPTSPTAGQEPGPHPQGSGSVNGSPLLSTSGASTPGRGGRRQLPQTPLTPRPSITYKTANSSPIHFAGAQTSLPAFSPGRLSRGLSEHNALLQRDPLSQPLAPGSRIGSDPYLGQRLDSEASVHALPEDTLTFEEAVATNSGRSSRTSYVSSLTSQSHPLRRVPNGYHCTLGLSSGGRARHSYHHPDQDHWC
T7 sequence (Q02410 whole entry): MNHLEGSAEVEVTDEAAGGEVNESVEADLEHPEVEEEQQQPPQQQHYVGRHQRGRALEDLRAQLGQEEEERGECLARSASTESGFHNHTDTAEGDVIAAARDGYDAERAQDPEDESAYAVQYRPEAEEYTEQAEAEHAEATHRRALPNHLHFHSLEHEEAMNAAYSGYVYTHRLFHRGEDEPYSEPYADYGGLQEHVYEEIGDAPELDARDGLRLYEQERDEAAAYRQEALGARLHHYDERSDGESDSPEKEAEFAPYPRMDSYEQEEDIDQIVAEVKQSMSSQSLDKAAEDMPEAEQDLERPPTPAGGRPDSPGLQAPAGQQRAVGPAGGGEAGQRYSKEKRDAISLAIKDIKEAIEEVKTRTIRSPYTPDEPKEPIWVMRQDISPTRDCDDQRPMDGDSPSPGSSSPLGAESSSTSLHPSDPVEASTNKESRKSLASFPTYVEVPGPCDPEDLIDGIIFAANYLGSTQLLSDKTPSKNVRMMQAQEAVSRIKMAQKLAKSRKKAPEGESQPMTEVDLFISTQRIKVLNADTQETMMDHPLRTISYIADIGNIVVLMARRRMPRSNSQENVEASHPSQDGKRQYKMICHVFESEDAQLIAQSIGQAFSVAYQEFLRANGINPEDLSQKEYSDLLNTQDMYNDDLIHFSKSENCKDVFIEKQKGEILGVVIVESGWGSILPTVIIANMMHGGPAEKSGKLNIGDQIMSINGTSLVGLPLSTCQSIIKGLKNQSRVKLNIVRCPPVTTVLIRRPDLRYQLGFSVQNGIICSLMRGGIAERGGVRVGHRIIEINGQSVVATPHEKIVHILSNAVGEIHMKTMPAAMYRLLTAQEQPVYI

[11] = biological target: T7, Voltage-gated N-type calcium channel alpha-1B subunit/Amyloid beta A4 precursor protein-binding family A member 1; experiment: disruptors of Mint-PDZ/N-type channel peptide interaction – biochemical, HTRF, set 2, SAR follow-up (AID 434980); format: functional
HEK293 [12] = experiment: SAR Analysis of small molecule inhibitors of T-cell specific antigen receptor-induced NF-kB activation in a HEK-293T cell line using a luminescence assay - Set 2. [Related pubchem assays (depositor defined):AID435003, AID435012, AID489026]; format: functional, cell-based; details: Homo sapiens
HEK293 [13] = experiment: HEK293T cell viability loss, resazurin readout – resazurin fluorescence, cytotoxicity control for NF-kB activator project, SAR follow-up (AID 493251); format: functional, cell-based; details: Homo sapiens
Jurkat = experiment: SAR Analysis of small molecule inhibitors of T-cell specific antigen receptor-induced NF-kB activation in a Jurkat cell line using a luminescence assay - Set 2. [Related pubchem assays (depositor defined):AID435003, AID435012, AID465]; format: functional, cell-based; details: Homo sapiens
[14] = biological target: T8, Short transient receptor potential channel 4 (Mus musculus, UniProt Q9QUQ5); experiment: potency of mouse TRPC4 calcium flux blockers – cell-based, HEK293 TRPC4/mu-opioid, DAMGO stimulus, Fluo-4, dose response (AID 492994); format: functional
T8 sequence (Q9QUQ5 whole entry): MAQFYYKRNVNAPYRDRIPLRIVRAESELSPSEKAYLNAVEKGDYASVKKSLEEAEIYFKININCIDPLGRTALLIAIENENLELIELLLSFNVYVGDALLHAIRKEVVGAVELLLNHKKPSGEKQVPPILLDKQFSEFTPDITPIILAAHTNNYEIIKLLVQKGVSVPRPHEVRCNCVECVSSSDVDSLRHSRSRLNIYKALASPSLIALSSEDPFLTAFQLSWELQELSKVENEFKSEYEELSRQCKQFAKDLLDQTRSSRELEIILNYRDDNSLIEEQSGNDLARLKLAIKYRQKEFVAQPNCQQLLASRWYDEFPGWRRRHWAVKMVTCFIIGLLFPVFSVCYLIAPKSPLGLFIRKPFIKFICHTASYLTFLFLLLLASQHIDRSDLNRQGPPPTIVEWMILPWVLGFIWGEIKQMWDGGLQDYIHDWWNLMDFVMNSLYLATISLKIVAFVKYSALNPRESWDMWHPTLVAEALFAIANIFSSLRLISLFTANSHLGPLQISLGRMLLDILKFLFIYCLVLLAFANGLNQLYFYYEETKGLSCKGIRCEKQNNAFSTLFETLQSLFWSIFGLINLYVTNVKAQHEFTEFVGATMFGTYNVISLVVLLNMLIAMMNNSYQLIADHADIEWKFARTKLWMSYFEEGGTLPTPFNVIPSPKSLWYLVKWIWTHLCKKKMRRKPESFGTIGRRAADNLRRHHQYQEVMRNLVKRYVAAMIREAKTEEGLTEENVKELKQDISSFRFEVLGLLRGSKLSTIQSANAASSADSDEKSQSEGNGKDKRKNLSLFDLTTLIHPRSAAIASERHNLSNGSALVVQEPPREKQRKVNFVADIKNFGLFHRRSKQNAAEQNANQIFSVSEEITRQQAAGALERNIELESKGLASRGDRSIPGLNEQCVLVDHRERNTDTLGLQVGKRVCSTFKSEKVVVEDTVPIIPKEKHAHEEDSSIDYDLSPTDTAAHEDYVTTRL

[15] = biological target: T8, Short transient receptor potential channel 4; experiment: SAR Analysis for the identification of selective inhibits of the transient receptor potential cation channel C4 (TRPC4): Automated Electrophysiology_2. [Related pubchem assays (depositor defined):AID2256]; format: functional

Chain of Nonstructural protein 1 (Q194T2 whole entry): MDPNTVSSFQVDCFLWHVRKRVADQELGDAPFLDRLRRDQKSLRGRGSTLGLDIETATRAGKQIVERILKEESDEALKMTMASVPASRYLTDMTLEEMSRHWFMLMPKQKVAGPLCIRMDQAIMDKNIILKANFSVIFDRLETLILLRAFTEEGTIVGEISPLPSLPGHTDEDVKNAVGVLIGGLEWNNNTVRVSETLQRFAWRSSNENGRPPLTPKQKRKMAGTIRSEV

CC1=NN(Cc2ccccc2)C(=O)/C1=C\c1ccc(N(C)C)cc1
IC50 (Nonstructural protein 1): 32.3 µM (active) | IC50 [1]: 39.4 µM (active) | IC50 [2]: 46.7 µM (active) | IC50 (Protein skinhead-1): > 100 µM (inactive) | EC50 (Protein RecA): > 380 µM (inactive) | IC50 [3]: 35.1 µM (active) | IC50 [4]: 16.8 µM (inactive)

Cc1cc(C)c[n+](-c2[n-]c(=O)sc2C=NN=C(S)Nc2ccccc2)c1
EC50 [5]: 9.02 µM (inconclusive) | EC50 [6]: 9.61 µM (active) | AC50 (Keap1/Nrf2): 39.6 µM (active)

O=C(Cn1nc(-c2ccccc2)c2ccccc21)N1CCc2ccccc2C1
AC50 (NIH3T3): 34.9 µM (active)

Cc1nn(-c2ccccc2)c(Cl)c1/C=N/NC(=O)c1ccco1
AC50 (Cytochrome P450 2D6): inconclusive | AC50 (Cytochrome P450 2C9): 22.4 µM (inconclusive)

O=C1CC(c2cccc(Br)c2)C2=C(COC2=O)N1 (centres undefined)
AC50 [7]: 85 µM (active)

O=C(O)c1sccc1SCc1ccc(Cl)cc1Cl
EC50 [8]: 66.9 µM (inactive) | EC50 [9]: > 114 µM (inactive)

Cc1ccc(CNC(=O)COC(=O)c2cc(-c3ccco3)nc3ccccc23)cc1
IC50 (SUMO E1/E2): 6.5 µM (active) | IC50 [10]: 18.1 µM (active) | IC50 [11]: 12.1 µM (active)

CNC(=O)CCc1nc(-c2ccccc2)no1
IC50 (HEK293 [12]): > 80 µM (inactive) | IC50 (HEK293 [13]): > 80 µM (inactive) | IC50 (Jurkat): > 79 µM (inactive)

Cc1cc(N2CCCC(O)C2)nc2ccccc12 (centres undefined)
IC50 [14]: 7.32 µM (active) | IC50 [15]: 9.4 µM (active)
